Test systems include Aureobasidium pullulans; Leuconostoc lactis; Escherichia coli; Listeria innocua; Pasteurella multocida; Bacillus cereus; Streptococcus uberis; Micrococcus luteus; Enterobacter cloacae; Enterococcus faecalis; Pseudomonas aeruginosa; Staphylococcus aureus; Escherichia coli BL21; Escherichia coli UB1005; Candida albicans.
Common to all, as to test: ≥ marks a high value that may be exact or a test limit, other limits are often not marked, values filed in µg/mL are converted to µM
Experiment [1] deals with Pseudomonas aeruginosa ATCC 27853.
Experiment [2] relates to Candida albicans ATCC 10231.
Experiment [3] has as its system Staphylococcus aureus ATCC 9144.
Experiment [4] concerns Corynebacterium glutamicum ATCC 13032.
In experiment [5] the test system is Escherichia coli ATCC 25922.
Experiment [6] relates to Staphylococcus aureus ATCC 6538.
Experiment [7] concerns Micrococcus luteus ATCC 9341.
For experiment [8], the system named is Pseudomonas aeruginosa ATCC 9027.
Experiment [9] concerns Escherichia coli ATCC 2592.
Experiment [10] deals with Candida albicans ATCC 36232.
Experiment [11] concerns Pseudomonas aeruginosa PAO1.
The test system of experiment [12] is Pseudomonas aeruginosa 910.
Experiment [13] concerns Pseudomonas aeruginosa 919.
Experiment [14] deals with Pseudomonas aeruginosa 253.
Experiment [15] deals with Staphylococcus aureus ATCC 25923.
Experiment [16] deals with Staphylococcus epidermidis.
For experiment [17], the system named is Staphylococcus aureus ATCC 29213.
Experiment [18] concerns Bifidobacterium longum subsp. infantis.
Experiment [19] has as its system Staphylococcus aureus ATCC BAA-41.
Experiment [20] concerns Staphylococcus aureus ATCC 6538P.
Experiment [21] concerns Enterococcus faecalis ATCC 29212.
For experiment [22], the system named is Pseudomonas aeruginosa H103.
Experiment [23] deals with Salmonella enterica serovar Typhimurium.

≈ marks a conversion by molar mass, not a printed value. Some results are limits rather than exact numbers.

Usually MIC stands for the lowest concentration found to suppress growth. A high value points to weaker potency. Regarding `CC(C)[C@H](NC(=O)[C@H](CCCCN)NC(=O)[C@H](C)NC(=O)[C@@H](NC(=O)[C@@H](NC(=O)[C@H](CCCN=C(N)N)NC(=O)[C@H](CCCN=C(N)N)NC(=O)[C@H](Cc1c[nH]c2ccccc12)NC(=O)[C@H](Cc1c[nH]c2ccccc12)NC(=O)[C@H](C)N)[C@@H](C)O)C(C)C)C(=O)N[C@@H](CCCN=C(N)N)C(=O)N[C@@H](CCCCN)C(N)=O` [AWWRRTVAKVRK], the MIC in the experiment with Aureobasidium pullulans was at least 50 µM; in experiment [1] it was 6.3 µM (≈ 9.8 µg/mL); in experiment [2], 25 µM (≈ 38.9 µg/mL); in experiment [3] it was 25 µM (≈ 38.9 µg/mL); in experiment [4] it was 0.8 µM (≈ 1.24 µg/mL); in experiment [5], 12.5 µM (≈ 19.4 µg/mL).
As for `CC(C)C[C@H](NC(=O)[C@H](CS)NC(=O)[C@H](Cc1cnc[nH]1)NC(=O)[C@H](C)NC(=O)[C@H](C)NC(=O)[C@H](CS)NC(=O)[C@H](C)NC(=O)[C@H](C)NC(=O)[C@@H](N)CC(=O)O)C(=O)N[C@@H](Cc1c[nH]c2ccccc12)C(=O)N[C@@H](CCCN=C(N)N)C(N)=O` [DAACAAHCLWR], the MIC in experiment [6] was above 164 µM; in experiment [7] it was at least 164 µM; in experiment [8], above 164 µM; in experiment [9] it was at least 164 µM; in experiment [10] it was at least 164 µM.
Turning to `CC[C@H](C)[C@H](NC(=O)[C@@H](N)Cc1ccccc1)C(=O)N[C@@H](CCCCN)C(=O)N[C@@H](Cc1c[nH]c2ccccc12)C(=O)N[C@@H](CCCN=C(N)N)C(=O)N[C@@H](Cc1ccccc1)C(=O)N[C@@H](CCCN=C(N)N)C(=O)N[C@@H](CCCN=C(N)N)C(=O)N[C@@H](Cc1c[nH]c2ccccc12)C(=O)N[C@@H](CCCCN)C(=O)N[C@@H](CCCCN)C(=O)N[C@@H](CCCN=C(N)N)C(=O)N[C@@H](CCCCN)C(N)=O` [FIKWRFRRWKKRK], the minimum inhibitory concentration (MIC) in [11] is 4 µM (≈ 7.74 µg/mL); in experiment [12] it was 5.66 µM (≈ 10.9 µg/mL); in experiment [13], 22.6 µM (≈ 43.8 µg/mL); in experiment [14], 8 µM (≈ 15.5 µg/mL).
Turning to `CC[C@H](C)[C@H](NC(=O)CNC(=O)[C@H](CO)NC(=O)[C@@H](NC(=O)[C@H](CC(C)C)NC(=O)[C@H](CCC(=O)O)NC(=O)[C@H](CC(N)=O)NC(=O)[C@H](C)NC(=O)[C@H](CCCCN)NC(=O)[C@H](CCC(=O)O)NC(=O)[C@H](CCCCN)NC(=O)[C@@H](NC(=O)[C@H](CCCCN)NC(=O)[C@H](CCC(=O)O)NC(=O)[C@H](Cc1c[nH]c2ccccc12)NC(=O)[C@H](CC(C)C)NC(=O)CN)C(C)C)C(C)C)C(=O)N[C@H](C(=O)N[C@@H](CCC(=O)O)C(=O)NCC(=O)N[C@H](C(=O)N[C@@H](CCCCN)C(N)=O)C(C)C)C(C)C` [GLWEKVKEKANELVSGIVEGVK], the minimum inhibitory concentration (MIC) in the experiment with Leuconostoc lactis was at least 41.4 µM; in the experiment on Escherichia coli it was above 41.4 µM; with Listeria innocua it was at least 41.4 µM; in the experiment with Pasteurella multocida, at least 41.4 µM; in experiment [15], above 41.4 µM; in [16], at least 41.4 µM. For the same compound, the MIC was at least 41.4 µM against Bacillus cereus; at least 41.4 µM against Streptococcus uberis; above 41.4 µM in experiment [17]; at least 41.4 µM with Micrococcus luteus; at least 41.4 µM against Enterobacter cloacae; at least 41.4 µM in the experiment on Enterococcus faecalis. For the same compound, the MIC with Pseudomonas aeruginosa is above 41.4 µM.
As for `CC(C)[C@H](NC(=O)[C@H](C)NC(=O)[C@H](CCCN=C(N)N)NC(=O)[C@H](CCCN=C(N)N)NC(=O)[C@H](Cc1c[nH]c2ccccc12)NC(=O)[C@H](Cc1c[nH]c2ccccc12)NC(=O)CN)C(=O)N[C@@H](C)C(=O)N[C@@H](CCCCN)C(=O)N[C@H](C(=O)N[C@@H](CCCN=C(N)N)C(=O)N[C@@H](CCCCN)C(N)=O)C(C)C` [GWWRRAVAKVRK], the MIC against Aureobasidium pullulans turned out to be 25 µM (≈ 37.8 µg/mL); in [1], 3.1 µM (≈ 4.69 µg/mL); in experiment [2], 25 µM (≈ 37.8 µg/mL); in [3], 12.5 µM (≈ 18.9 µg/mL); in experiment [4] it was 1.6 µM (≈ 2.42 µg/mL); in experiment [5], 3.1 µM (≈ 4.69 µg/mL).
For the compound `CC[C@H](C)[C@H](NC(=O)[C@@H]1CCCN1C(=O)[C@H](CCC(N)=O)NC(=O)[C@@H]1CCCN1C(=O)[C@@H](NC(=O)[C@H](CCC(N)=O)NC(=O)[C@H](CCC(N)=O)NC(=O)[C@H](CCSC)NC(=O)[C@H](CC(C)C)NC(=O)[C@@H]1CCCN1C(=O)[C@H](CCC(N)=O)NC(=O)[C@H](CC(C)C)NC(=O)[C@H](CC(C)C)NC(=O)[C@@H]1CCCN1C(=O)[C@H](CC(C)C)NC(=O)[C@@H]1CCCN1C(=O)[C@H](CC(C)C)NC(=O)[C@@H](N)Cc1cnc[nH]1)C(C)C)C(=O)O` [HLPLPLLQPLMQQVPQPI], the MIC against Staphylococcus aureus is above 1450 µM; with Escherichia coli it was above 1450 µM; in experiment [18], at least 1450 µM.
For the compound `CC[C@H](C)[C@H](NC(=O)[C@H](CCCCN)NC(=O)[C@H](CCCCN)NC(=O)[C@H](Cc1ccccc1)NC(=O)[C@H](CCCCN)NC(=O)[C@H](CCCCN)NC(=O)[C@H](Cc1c[nH]c2ccccc12)NC(=O)[C@@H](N)CCCCN)C(=O)NCC(=O)N[C@@H](C)C(=O)N[C@H](C(=O)N[C@@H](CC(C)C)C(=O)N[C@@H](CCCCN)C(=O)N[C@@H](CCCCN)C(=O)N[C@@H](CC(C)C)C(=O)O)C(C)C` [KWKKFKKIGAVLKKL], the MIC was 16 µM (≈ 29 µg/mL) in experiment [19]; 1.41 µM (≈ 2.57 µg/mL) in [11]; 0.5 µM (≈ 0.908 µg/mL) in [16]; 16 µM (≈ 29 µg/mL) in [20]; 1.41 µM (≈ 2.57 µg/mL) against Escherichia coli BL21.
For `CC[C@H](C)[C@H](NC(=O)[C@H](CCCCN)NC(=O)[C@H](CCCCN)NC(=O)[C@H](Cc1ccccc1)NC(=O)[C@H](CC(C)C)NC(=O)[C@H](CCCCN)NC(=O)[C@H](Cc1c[nH]c2ccccc12)NC(=O)[C@@H](N)CCCCN)C(=O)NCC(=O)N[C@@H](CCCCN)C(=O)N[C@H](C(=O)N[C@@H](CC(C)C)C(=O)N[C@@H](CCCCN)C(=O)N[C@@H](CCCCN)C(=O)N[C@@H](CC(C)C)C(=O)O)C(C)C` [KWKLFKKIGKVLKKL], the minimum inhibitory concentration (MIC) in experiment [19] turned out to be 16 µM (≈ 29.7 µg/mL); in experiment [11], 1.41 µM (≈ 2.63 µg/mL); in experiment [16] it was 0.25 µM (≈ 0.464 µg/mL); in experiment [20], 5.66 µM (≈ 10.5 µg/mL); against Escherichia coli BL21 it was 1 µM (≈ 1.86 µg/mL).
Consider `CC[C@H](C)[C@H](NC(=O)[C@H](CCCN=C(N)N)NC(=O)[C@H](C)NC(=O)[C@H](CC(C)C)NC(=O)[C@@H](N)CCCN=C(N)N)C(=O)N[C@H](C(=O)N[C@H](C(=O)N[C@H](C(=O)N[C@@H](CCCN=C(N)N)C(=O)N[C@@H](Cc1c[nH]c2ccccc12)C(=O)N[C@@H](C)C(=O)N[C@@H](CCCN=C(N)N)C(N)=O)[C@@H](C)CC)C(C)C)C(C)C` [RLARIVVIRWAR], for which the MIC turned out to be 2.65 µM (≈ 4 µg/mL) in the experiment on Escherichia coli UB1005; 5.3 µM (≈ 7.99 µg/mL) against Candida albicans; 2.65 µM (≈ 4 µg/mL) in experiment [21]; 16 µM (≈ 24.1 µg/mL) in [11]; 5.3 µM (≈ 7.99 µg/mL) in experiment [15]; 1.33 µM (≈ 2 µg/mL) in [16]. Moreover, the MIC in [22] was 10.6 µM (≈ 16 µg/mL); in experiment [12], 16 µM (≈ 24.1 µg/mL); in experiment [13] it was 16 µM (≈ 24.1 µg/mL); in [23], 5.3 µM (≈ 7.99 µg/mL); in experiment [14] it was 16 µM (≈ 24.1 µg/mL).

The values above are taken from DBAASP.
